# Experimental data published in patent publication US9353082B2, “Pharmaceutical compounds” (BIAL—PORTELA & CA, S.A., priority 2008, dated 2016).
# Where a name gives a salt, the structure may show the parent alone.
# Molecular target: T1, FAAH (Rattus norvegicus, UniProt P97612)
# T1 construct: Frozen brains (without cerebellum) from Wistar rats were used; from tissue; host or cells: Wistar rat brain (without cerebellum), washed membrane pellets
# T1 sequence (P97612 1-579): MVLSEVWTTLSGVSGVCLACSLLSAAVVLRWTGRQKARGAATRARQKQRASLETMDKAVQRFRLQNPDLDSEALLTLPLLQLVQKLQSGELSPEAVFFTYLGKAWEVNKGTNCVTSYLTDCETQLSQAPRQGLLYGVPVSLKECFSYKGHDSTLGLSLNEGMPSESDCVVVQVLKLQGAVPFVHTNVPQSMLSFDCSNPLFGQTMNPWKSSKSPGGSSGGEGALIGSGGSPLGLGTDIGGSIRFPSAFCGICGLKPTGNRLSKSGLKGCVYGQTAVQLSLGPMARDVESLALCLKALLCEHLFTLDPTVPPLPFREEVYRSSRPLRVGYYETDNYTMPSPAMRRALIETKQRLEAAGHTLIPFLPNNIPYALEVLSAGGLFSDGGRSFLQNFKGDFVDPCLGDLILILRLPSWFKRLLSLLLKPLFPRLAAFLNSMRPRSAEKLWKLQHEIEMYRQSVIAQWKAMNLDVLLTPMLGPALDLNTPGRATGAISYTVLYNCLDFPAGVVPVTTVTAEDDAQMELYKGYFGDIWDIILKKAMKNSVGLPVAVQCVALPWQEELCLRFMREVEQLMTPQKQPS
# Assay: In vitro FAAH activity in rat brain membranes, 3H-AEA substrate, % of control
# Format: biochemical, Wistar rats
# Details: 100 nM test compound, low value = strong inhibitor
# How it was run: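 FAAH activity measured as 3H-ethanolamine released from 2 μM [3H]AEA over 10 min by rat brain membrane preparation, after 15 min 37 °C preincubation with test compound at 10 or 0.1 μM. Charcoal-separated supernatant scintillation-counted; values expressed as % of control minus no-protein blank.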
row,Structure (SMILES),"In Vitro FAAH activity, 100 nM"
1,"O=C(N1CCN(c2ccc(O)cc2)CC1)n1nnc2ccccc21 [Compound 136, (1H-benzo[d][1,2,3]triazol-1-yl)(4-(4-hydroxyphenyl)piperazin-1-yl)methanone]",0.2 % of control
2,"COc1ccc(OC2CCN(C(=O)n3nnc4ccccc43)CC2)cc1 [Compound 137, (1H-benzo[d][1,2,3]triazol-1-yl)(4-(4-methoxyphenoxy)piperidin-1-yl)methanone]",0.1 % of control
3,"CN(C)C(=O)n1cnc(-c2ccc(N3CCN(c4ccccc4)CC3)cc2)n1 [Compound 138, N,N-dimethyl-3-(4-(4-phenylpiperazin-1-yl)phenyl)-1H-1,2,4-triazole-1-carboxamide]",83.8 % of control
4,"O=C(N[C@H]1CN2CCC1CC2)n1nnc2ccccc21 [Compound 142, (R)—N-(quinuclidin-3-yl)-1H-benzo[d][1,2,3]triazole-1-carboxamide hydrochloride]",101.8 % of control
5,"CN(C(=O)n1cnc(Cc2ccccc2)n1)c1ccccc1 [Compound 160, 3-benzyl-N-methyl-N-phenyl-1H-1,2,4-triazole-1-carboxamide]",18.8 % of control
6,"CC1(C)COCN1C(=O)n1cnc(-c2ccccc2)c1 [Compound 161, (4,4-dimethyloxazolidin-3-yl)(4-phenyl-1H-imidazol-1-yl)methanone]",93.6 % of control
7,"COc1cccc(OC2CCN(C(=O)n3nnc4ccccc43)CC2)c1 [Compound 166, (1H-benzo[d][1,2,3]triazol-1-yl)(4-(3-methoxyphenoxy)piperidin-1-yl)methanone]",0 % of control
8,"CCCCOc1ccc(OC2CCN(C(=O)n3nnc4ccccc43)CC2)cc1 [Compound 168, (1H-benzo[d][1,2,3]triazol-1-yl)(4-(4-butoxyphenoxy)piperidin-1-yl)methanone]",0 % of control
9,"O=C(N1CCCCCC1)n1nnc2ccccc21 [Compound 172, azepan-1-yl(1H-benzo[d][1,2,3]triazol-1-yl)methanone]",0.3 % of control
10,"C[C@@H]1CCC[C@H](C)N1C(=O)n1nnc2ccccc21 [Compound 173, (1H-benzo[d][1,2,3]triazol-1-yl)((2R,6S)-2,6-dimethylpiperidin-1-yl)methanone]",70.6 % of control
11,"O=C(N1Cc2ccccc2C1)n1nnc2ccccc21 [Compound 174, (1H-benzo[d][1,2,3]triazol-1-yl)(isoindolin-2-yl)methanone]",0.7 % of control
12,"CN(C(=O)n1cnc(-c2cccs2)n1)c1ccccc1 [Compound 180, N-methyl-N-phenyl-3-(thiophen-2-yl)-1H-1,2,4-triazole-1-carboxamide]",57.5 % of control
13,"CN(Cc1ccccc1)C(=O)n1cnc(-c2cccs2)n1 [Compound 181, N-benzyl-N-methyl-3-(thiophen-2-yl)-1H-1,2,4-triazole-1-carboxamide]",0.9 % of control
14,"O=C(N1CCc2ccccc2C1)n1cnc(-c2ccccc2)c1 [Compound 184, (3,4-dihydroisoquinolin-2(1H)-yl)(4-phenyl-1H-imidazol-1-yl)methanone]",30.2 % of control
15,"CN(Cc1ccccc1)C(=O)n1cnc(-c2ccc3ccccc3c2)n1 [Compound 190, N-benzyl-N-methyl-3-(naphthalen-2-yl)-1H-1,2,4-triazole-1-carboxamide]",20.7 % of control
16,"CN(C(=O)n1cnc(-c2cccc3ccccc23)n1)c1ccccc1 [Compound 192, N-methyl-3-(naphthalen-1-yl)-N-phenyl-1H-1,2,4-triazole-1-carboxamide]",64.6 % of control

# Continued, values first:
row,"In Vitro FAAH activity, 100 nM",Structure (SMILES)
1,34.5 % of control,"Cc1ccc(OC2CCN(C(=O)n3cnc(-c4ccc(F)cc4F)n3)CC2)cc1 [Compound 134, (3-(2,4-difluorophenyl)-1H-1,2,4-triazol-1-yl)(4-(p-tolyloxy)piperidin-1-yl)methanone]"
2,58.6 % of control,"CN(C)C(=O)n1cnc(-c2ccc(Oc3ccc(C#N)cc3)cc2)n1 [Compound 140, 3-(4-(4-cyanophenoxy)phenyl)-N,N-dimethyl-1H-1,2,4-triazole-1-carboxamide]"
3,15.9 % of control,"N#Cc1ccc(Oc2ccc(-c3ncn(C(=O)N4CCOCC4)n3)cc2)cc1 [Compound 141, 4-(4-(1-(morpholine-4-carbonyl)-1H-1,2,4-triazol-3-yl)phenoxy)benzonitrile]"
4,77.1 % of control,"CN(C)C(=O)n1cnc(-c2ccc(Oc3ccc(C(N)=O)cc3)cc2)n1 [Compound 146, 3-(4-(4-carbamoylphenoxy)phenyl)-N,N-dimethyl-1H-1,2,4-triazole-1-carboxamide]"
5,49.9 % of control,"CN(C(=O)n1cnc(-c2ccc(Oc3ccc(C(N)=O)cc3)cc2)n1)c1ccccc1 [Compound 149, 3-(4-(4-carbamoylphenoxy)phenyl)-N-methyl-N-phenyl-1H-1,2,4-triazole-1-carboxamide]"
6,1.3 % of control,"CN(C(=O)n1nnc2ccccc21)[C@H]1CC[C@H](OCc2ccccc2)CC1 [Compound 152, N-((1r,4r)-4-(benzyloxy)cyclohexyl)-N-methyl-1H-benzo[d][1,2,3]triazole-1-carboxamide]"
7,0 % of control,"COc1cccc(OCC2CCN(C(=O)n3nnc4ccccc43)CC2)c1 [Compound 153, (1H-benzo[d][1,2,3]triazol-1-yl)(4-((3-methoxyphenoxy)methyl)piperidin-1-yl)methanone]"
8,0.2 % of control,"O=C(N1CCN(C2CCCC2)CC1)n1nnc2ccccc21 [Compound 154, (1H-benzo[d][1,2,3]triazol-1-yl)(4-cyclopentylpiperazin-1-yl)methanone]"
9,4.8 % of control,"O=C(N1CCC(O)CC1)n1nnc2ccccc21 [Compound 159, (1H-benzo[d][1,2,3]triazol-1-yl)(4-hydroxypiperidin-1-yl)methanone]"
10,0.3 % of control,"O=C(N1CCC(Oc2ccc(OCc3ccccc3)cc2)CC1)n1nnc2ccccc21 [Compound 164, (1H-benzo[d][1,2,3]triazol-1-yl)(4-(4-(benzyloxy)phenoxy)piperidin-1-yl)methanone]"
11,0 % of control,"COc1ccc(OCC2CCN(C(=O)n3nnc4ccccc43)CC2)cc1 [Compound 165, (1H-benzo[d][1,2,3]triazol-1-yl)(4-((4-methoxyphenoxy)methyl)piperidin-1-yl)methanone]"
12,73.6 % of control,"CON(C)C(=O)n1nnc2ccccc21 [Compound 169, N-methoxy-N-methyl-1H-benzo[d][1,2,3]triazole-1-carboxamide]"
13,2.1 % of control,"O=C(N1CCSC1)n1nnc2ccccc21 [Compound 170, (1H-benzo[d][1,2,3]triazol-1-yl)(thiazolidin-3-yl)methanone]"
14,15.2 % of control,"O=C(N1CCCCCCC1)n1nnc2ccccc21 [Compound 171, azocan-1-yl(1H-benzo[d][1,2,3]triazol-1-yl)methanone]"
15,21 % of control,"CC1CC(C)CN(C(=O)n2nnc3ccccc32)C1 (centres unmarked) [Compound 175, (1H-benzo[d][1,2,3]triazol-1-yl)(3,5-dimethylpiperidin-1-yl)methanone]"
16,0.2 % of control,"CCOC(=O)C1CCN(C(=O)n2nnc3ccccc32)CC1 [Compound 176, ethyl 1-(1H-benzo[d][1,2,3]triazole-1-carbonyl)piperidine-4-carboxylate]"
17,6.9 % of control,"CCOC(=O)N1CCN(C(=O)n2nnc3ccccc32)CC1 [Compound 177, ethyl 4-(1H-benzo[d][1,2,3]triazole-1-carbonyl)piperazine-1-carboxylate]"
18,94.5 % of control,"CC(=O)N1CCN(C(=O)n2nnc3ccccc32)CC1 [Compound 178, 1-(4-(1H-benzo[d][1,2,3]triazole-1-carbonyl)piperazin-1-yl)ethanone]"
19,49 % of control,"NC(=O)C1CCN(C(=O)n2nnc3ccccc32)CC1 [Compound 179, 1-(1H-benzo[d][1,2,3]triazole-1-carbonyl)piperidine-4-carboxamide]"
20,71.8 % of control,"O=C(N1CCc2ccccc2C1)n1cnc(-c2ccc(Cl)cc2)n1 [Compound 185, (3-(4-chlorophenyl)-1H-1,2,4-triazol-1-yl)(3,4-dihydroisoquinolin-2(1H)-yl)methanone]"
21,110.2 % of control,"C[C@@H]1CN(C(=O)n2nnc3ccccc32)C[C@@H](C)O1 [Compound 193, (1H-benzo[d][1,2,3]triazol-1-yl)((2R,6R)-2,6-dimethylmorpholino)methanone]"

# Same assay, conditions: 10 uM test compound, low value = strong inhibitor
row,"In Vitro FAAH activity, 10 uM",Structure (SMILES)
1,3.3 % of control,"CC1(C)COCN1C(=O)n1cnc(-c2ccccc2)c1 [Compound 161, (4,4-dimethyloxazolidin-3-yl)(4-phenyl-1H-imidazol-1-yl)methanone]"
